The results in this text go back to patent publication US10851115B2, “Heterocyclic compounds as RSV inhibitors” (Enanta Pharmaceuticals, Inc., priority 2017, dated 2020).

The subject of this experiment is Human RSV-A (“Long” strain). Briefly: RSV in vitro cytoprotection assay in HEp-2 cells (ATPlite readout). Format: cell-based. The settings on record: human respiratory syncytial virus, 96 h; HEp-2 cells, 4-day incubation, ATPlite; read-out: Human RSV-A (“Long” strain) EC50. An excerpt:
RSV is a single stranded negative sense RNA virus that causes respiratory tract infections which can be dangerous to infants, the elderly, and immunosuppressed individuals. Currently there is no vaccine, and therapeutic options are both costly and of limited effectiveness. These approved treatments are Ribavirin, and Palivizumab/Synagis (a monoclonal antibody). RSV has two genotypes, A and B, which differ primarily in the structure of the virus' surface “G” attachment protein. Our current primary screen focusses on RSV-A and uses an in vitro cytoprotection assay where compounds are added in 2-fold dilutions to cells which are then subjected to fully replicative viral particles. Cell viability is measured several days later along with separate measurements of compound cytotoxicity. This report focuses on the results of our most recent screening of compounds.
HEp-2 cells, (originally derived from tumors grown in irradiated-cortisonised weanling rats that had been injected with epidermoid carcinoma tissue from a person's larynx, but later found to be indistinguishable from HeLa cells by PCR DNA analysis), were used for the culturing of genotype A, “Long” strain RSV. Flasks were inoculated with RSV and viral stocks were collected once cytopathic effect (CPE) was greater than 90%. Viral stocks in 25% sucrose media were snap frozen using liquid nitrogen to increase viral stability. Viral stock titers were quantified by tissue culture infectious dose 50% (TCID50) using 8,000 cells per well and 3-fold viral dilutions across a 96-well plate, cultured for 4 days.
Following extensive parameter testing, the final assay is run as follows: HEp-2 cells are seeded into the inner 60 wells of a 96-well plate at 8,000 cells per well in a volume of 50 μL using Growth Media (DMEM without phenol red, 1% L-Glut, 1% Penn/Strep, 1% nonessential amino acids, 10% FBS). 2-Fold serial dilutions of control and test compounds are added to the wells in duplicate in a total volume of 25 μL. Viral stock is then added to the wells in a volume of 25 μL, bringing the total volume of each well to 100 μL. Each 96-well plate has a control column of 6 wells with cells and virus but no compound (negative control, max CPE), a column with cells but no compound or virus (positive control, minimum CPE), and a column with no cells or virus or compound (background plate/reagent control). The control wells with cells but no virus are given an additional 25 uL of growth media containing an equal quantity of sucrose as those wells receiving the viral stock in order to keep consistent in media and volume conditions. The outer wells of the plate are filled with 125 μL of growth media to act as a thermal and evaporative moat around the test wells. Following a 4-day incubation period, the plates are read using ATPlite (50 uL added per well), which quantifies the amount of ATP (a measure of cell health) present in each well. Assay plates are read using the Envision luminometer. In parallel, cytotoxicity is examined on an additional 96-well plate treated in an identical manner, but substituting the 25 μL of viral stock for 25 μL of growth media. […] EC50 ranges are as follows: A<0.01 μM; B 0.01-0.05 μM; C>0.05 μM.
As a reminder, the EC50 is the concentration giving half of the maximal effect. With `Cc1cnc(N2CC3(CCOCC3)C2)c(C(=O)Nc2ccc(C(=O)N3CCc4cc(C(=O)Nc5cccc(C)n5)sc4-c4ncccc43)cc2)c1` [Example 23], the EC50 was below 10 nM.
On to `Cc1cnc(N2CC3(CCOCC3)C2)c(C(=O)Nc2ccc(C(=O)N3CCc4c(sc(C(=O)Nc5c(F)cccc5C(F)(F)F)c4F)-c4ncccc43)cc2)c1` [Example 77], for which the EC50 lay in the range of 10 to 50 nM.
In the case of `Cc1cnc(N2CC3(CCOCC3)C2)c(C(=O)Nc2ccc(C(=O)N3CCc4cc(-c5nc6cccc(Cl)c6[nH]5)sc4-c4ncc(F)cc43)cc2)c1` [Example 63], the EC50 is below 10 nM.
The result for `O=C(Nc1c(F)cccc1Cl)c1cc2c(o1)-c1ncc(F)cc1N(C(=O)c1ccc(NC(=O)c3cc4c(nc3N3CC5(CCOCC5)C3)CCC4)cc1)CC2` [Example 106] reads below 10 nM; that for `Cc1ccc2c(n1)-c1sc(C(=O)Nc3c(F)cccc3C(F)(F)F)cc1CCN2C(=O)c1ccc(NC(=O)c2ccc(C)nc2N2CC3(CCOCC3)C2)cc1` [Example 149], above 50 nM; that for `Cc1cnc(N2CC3(CCOCC3)C2)c(C(=O)Nc2ccc(C(=O)N3CCc4cc(C(=O)Nc5nccs5)sc4-c4ncccc43)cc2)c1` [Example 35], below 10 nM.
`Cc1ccc2c(n1)-c1sc(C(=O)Nc3ncccc3F)cc1CCN2C(=O)c1ccc(NC(=O)c2ccc(C)nc2N2CC3(CCOCC3)C2)cc1` [Example 146]: the EC50 lay in the range of 10 to 50 nM.
As for `Cc1cnc(N2CC3(CCOCC3)C2)c(C(=O)Nc2ccc(C(=O)N3CCc4cc(C(=O)Nc5c(C)cccc5F)sc4-c4ncc(C)cc43)cc2)c1` [Example 134], the EC50 is below 10 nM.
As for `O=C(Nc1c(F)cccc1Cl)c1cc2c(s1)-c1ncccc1N(C(=O)c1ccc(NC(=O)c3cccnc3N3CC4(CCOCC4)C3)cc1)CC2` [Example 5], the EC50 was below 10 nM.
Turning to `Cc1ccc2c(n1)-c1sc(C(=O)Nc3c(C)cccc3C#N)cc1CCN2C(=O)c1ccc(NC(=O)c2ccc(C)nc2N2CC3(CCOCC3)C2)cc1` [Example 147], the EC50 was above 50 nM.
For the compound `Cc1cnc(N2CC3(CCOCC3)C2)c(C(=O)Nc2ccc(C(=O)N3CCc4cc(-c5nc6ccccc6[nH]5)sc4-c4ncccc43)cc2)c1` [Example 38], the half-maximal effective concentration (EC50) lay within 10 to 50 nM.
Turning to `Cc1cnc(N2CCC3(CC2)COC3)c(C(=O)Nc2ccc(C(=O)N3CCc4cc(C(=O)Nc5c(F)cccc5Cl)sc4-c4ncccc43)cc2)c1` [Example 93], the EC50 was below 10 nM.
With `O=C(Nc1c(F)cccc1F)c1cc2c(o1)-c1ncccc1N(C(=O)c1ccc(NC(=O)c3cc4c(nc3N3CC5(CCOCC5)C3)CCC4)cc1)CC2` [Example 119], the EC50 was below 10 nM.
On to `Cc1cnc(N2CC3(CCOCC3)C2)c(C(=O)Nc2ccc(C(=O)N3CCc4cc(C(=O)Nc5c(F)cccc5F)oc4-c4cccnc43)cc2)c1` [Example 111], for which the EC50 was in the range of 10 to 50 nM.
Consider `Cc1cnc(N2CC3(CCOCC3)C2)c(C(=O)Nc2ccc(C(=O)N3CCc4cc(C(=O)Nc5c(F)cccc5F)sc4-c4nc(C)ccc43)cc2)c1` [Example 138], for which the EC50 lay within 10 to 50 nM.
`Cc1cnc(N2CC3(CCOCC3)C2)c(C(=O)Nc2ccc(C(=O)N3CCc4cc(C(=O)Nc5c(Cl)cccc5Cl)sc4-c4cc(C)sc43)cc2)c1` [Example 130]: the EC50 is above 50 nM.
The result for `Cc1cnc(N2CC3(CCOCC3)C2)c(C(=O)Nc2ccc(C(=O)N3CCc4cc(NC(=O)c5ncccc5F)sc4-c4ncccc43)cc2)c1` [Example 154] reads below 10 nM; that for `Cc1cnc(N2CC3(CCOCC3)C2)c(C(=O)Nc2ccc(C(=O)N3CCc4cc(C(=O)N[C@H]5CCOC5)sc4-c4ncccc43)cc2)c1` [Example 18], 10 to 50 nM; that for `Cc1cnc(N2CC3(CCOCC3)C2)c(C(=O)Nc2ccc(C(=O)N3CCc4cc(C(=O)Nc5ccccn5)sc4-c4ncccc43)cc2)c1` [Example 19], below 10 nM.
With `Cc1cnc(N2CC3(CCOCC3)C2)c(C(=O)Nc2ccc(C(=O)N3CCc4cc(C(=O)Nc5c(F)cccc5F)sc4-c4cc(C)sc43)cc2)c1` [Example 128], the concentration for a half-maximal effect (EC50) lay in the range of 10 to 50 nM.
Take `Cc1cnc(N2CC3(CCOCC3)C2)c(C(=O)Nc2ccc(C(=O)N3CCc4cc(-c5nc6cccc(F)c6[nH]5)oc4-c4ccncc43)cc2)c1` [Example 127]: the EC50 was above 50 nM.
For `Cc1cnc(N2CC3(CCOCC3)C2)c(C(=O)Nc2ccc(C(=O)N3CCc4cc(C(=O)Nc5c(C)cccc5F)sc4-c4ncccc43)cc2)c1` [Example 11], the EC50 is below 10 nM.
The result for `Cc1cnc(N2CC3(CCOCC3)C2)c(C(=O)Nc2ccc(C(=O)N3CCc4cc(C(=O)Nc5c(C)cccc5C)sc4-c4ncccc43)cc2)c1` [Example 7] reads below 10 nM; that for `O=C(Nc1c(F)cc(F)cc1Cl)c1cc2c(s1)-c1ncc(F)cc1N(C(=O)c1ccc(NC(=O)c3cccnc3N3CC4(CCOCC4)C3)cc1)CC2` [Example 59], below 10 nM.
As for `Cc1cnc(N2CC3COCC3C2)c(C(=O)Nc2ccc(C(=O)N3CCc4cc(C(=O)Nc5c(F)cccc5F)sc4-c4ncc(F)cc43)cc2)c1` (stereo not drawn) [Example 69], the EC50 is 10 to 50 nM.
With `Cc1cnc(N2CC3(CCOCC3)C2)c(C(=O)Nc2ccc(C(=O)N3CCc4cc(-c5nc6ccccc6[nH]5)oc4-c4ccncc43)cc2)c1` [Example 124], the EC50 is above 50 nM.
In the case of `Cc1cnc(N2CC3(CCOCC3)C2)c(C(=O)Nc2ccc(C(=O)N3CCc4cc(C(=O)Nc5ccncc5)sc4-c4ncccc43)cc2)c1` [Example 21] it was below 10 nM; in that of `Cc1cnc(N2CC3(CCOCC3)C2)c(C(=O)Nc2ccc(C(=O)N3CCc4cc(C(=O)Nc5c(F)cccc5F)sc4-c4ncccc43)cc2)c1` [Example 9], below 10 nM.
The result for `Cc1cnc(N2CC3(CCOCC3)C2)c(C(=O)Nc2ccc(C(=O)N3CCc4cc(NC(=O)c5c(F)cccc5F)sc4-c4ncccc43)cc2)c1` [Example 151] reads below 10 nM.
On to `Cc1cnc(N2CC3(CCOCC3)C2)c(C(=O)Nc2ccc(C(=O)N3CCc4cc(C(=O)Nc5c(F)cccc5F)oc4-c4ccncc43)cc2)c1` [Example 121], for which the EC50 fell in the range of 10 to 50 nM.
For the compound `Cc1cnc(N2CC3(CCOCC3)C2)c(C(=O)Nc2ccc(C(=O)N3CCc4cc(C(=O)Nc5c(F)cccc5Cl)sc4-c4ncc(C)cc43)cc2)c1` [Example 136], the EC50 was below 10 nM.
In the case of `Cc1cnc(N2CC3(CCOCC3)C2)c(C(=O)Nc2ccc(C(=O)N3CCc4cc(NC(=O)c5ccccc5F)sc4-c4ncccc43)cc2)c1` [Example 156] it was below 10 nM.
As for `O=C(Nc1ccc(C(=O)N2CCc3cc(-c4nc5ccccc5[nH]4)sc3-c3ccncc32)cc1)c1cccnc1N1CC2(CCOCC2)C1` [Example 3], the EC50 is above 50 nM.
As to `O=C(Nc1ccc(C(=O)N2CCc3cc(-c4nc5ccccc5[nH]4)oc3-c3ncccc32)cc1)c1cc2c(nc1N1CC3(CCOCC3)C1)CCC2` [Example 120], the EC50 was in the range of 10 to 50 nM.
As to `Cc1cnc(N2CC3(CCOCC3)C2)c(C(=O)Nc2ccc(C(=O)N3CCc4cc(C(=O)NC[C@H]5CCCO5)sc4-c4ncccc43)cc2)c1` [Example 28], the concentration giving a half-maximal response (EC50) was below 10 nM.
The result for `Cc1cnc(N2CC3(CCOCC3)C2)c(C(=O)Nc2ccc(C(=O)N3CCc4cc(-c5nc6ccccc6[nH]5)oc4-c4cccnc43)cc2)c1` [Example 114] reads above 50 nM; that for `Cc1ccc(C(=O)Nc2ccc(C(=O)N3CCc4cc(NC(=O)c5c(F)cccc5Cl)sc4-c4ncccc43)cc2)c(N2CC3(CCOCC3)C2)n1` [Example 159], 10 to 50 nM; that for `Cc1ccc2c(n1)-c1sc(C(=O)Nc3c(C)cccc3F)cc1CCN2C(=O)c1ccc(NC(=O)c2ccc(C)nc2N2CC3(CCOCC3)C2)cc1` [Example 145], above 50 nM.
On to `Cc1cnc(N2CC3(CCOCC3)C2)c(C(=O)Nc2ccc(C(=O)N3CCc4cc(C(=O)Nc5c(C)cccc5C#N)sc4-c4nc(C)ccc43)cc2)c1` [Example 141], for which the EC50 was above 50 nM.
Consider `Cc1ccc(C(=O)Nc2ccc(C(=O)N3CCc4c(sc(C(=O)Nc5c(F)cccc5C(F)(F)F)c4F)-c4ncccc43)cc2)c(N2CC3(CCOCC3)C2)n1` [Example 87], for which the EC50 is below 10 nM.
Turning to `Cc1cnc2c(c1)N(C(=O)c1ccc(NC(=O)c3cccnc3N3CC4(CCOCC4)C3)cc1)CCc1cc(C(=O)Nc3c(F)cccc3F)sc1-2` [Example 164], the concentration for a half-maximal effect (EC50) is below 10 nM.
Turning to `Cc1cnc(N2CC3(CCOCC3)C2)c(C(=O)Nc2ccc(C(=O)N3CCc4cc(C(=O)Nc5c(C)cccc5F)oc4-c4cccnc43)cc2)c1` [Example 112], the EC50 was above 50 nM.
